Assay results published in PubChem BioAssay AID2305 (GlaxoSmithKline (GSK), 2010).

Test system: P. falciparum 3D7 growth, pLDH absorbance
Assay: blood-stage malaria parasite growth potency – strain 3D7, dose response (AID 2305)

SMILES	IC50 [nM]
COc1ccccc1CCNc1nc(C)cc(N[C@@H](Cc2ccccc2)C(=O)NCCc2ccccc2)n1	1110
O=C(NC1CC1)c1ccc2cc(C(=O)N3Cc4ccccc4C(c4ccccc4)C3)ccc2c1 (stereo unspecified)	910
Nc1nc2c(c(=O)[nH]1)CN(S(=O)(=O)c1ccc(C(=O)N[C@@H](CCC(=O)O)C(=O)O)cc1)CC2	150
C[C@@H](CNc1ccnc(Nc2ccc3[nH]c(=O)[nH]c3c2)n1)c1ccccc1	1100
O=C(Nc1ccc2c(c1)CCN2C1CCN(Cc2cccc(C(F)(F)F)c2)C1)c1ccco1 (stereo unspecified)	560
COc1ccc(NC(=O)c2ccc(Br)c(C)c2)cc1N1CCN(Cc2ccccc2)CC1	920
Cc1cc(N[C@@H](Cc2ccccc2)C(=O)NCc2cccc(F)c2)nc(NCCc2ccc(F)cc2)n1	650
Oc1ccc(CCNc2nc(NCCCOc3cccc(-c4ccccc4)c3)nc(N3CCNCC3)n2)cc1	1130
CCN(CCCN1CCCCC1)c1cc(C)nc(Nc2cccc(OC(F)(F)F)c2)n1	230
Cc1cccc2[nH]c(-c3ccc(-c4ccc(CNCc5ccccc5)cc4)s3)nc12	210
Cc1cccc2[nH]c(=O)c([N+](=O)[O-])c(O)c12	910
CN(CCC(O)c1ccc(Cl)c(Cl)c1)C[C@H]1C[C@@H]1C(=O)c1ccccc1 (stereo partly specified)	790
Cc1ccc(C(=O)Cn2nc(-c3ccc(C)c(S(=O)(=O)N4CCCCC4)c3)ccc2=O)cc1	330
O=C(Nc1cccc(-c2csc(NC(=O)c3ccc4ccccc4c3)n2)c1)c1ccc2ccccc2c1	710
CCCc1ccc(NC(=O)c2ccc(CN3CCCN(CC4CCCCC4)CC3)cc2)cc1	520
COc1cc(Cc2cnc(N)nc2N)cc(OCCCCCCN2C(=O)c3ccccc3C2=O)c1OC	1100
CCOc1ccc(NC(=O)c2ccc(NCCCN3CC(C)CC(C)C3)c([N+](=O)[O-])c2)cc1 (stereo unspecified)	710
Cc1ccc(O)cc1Nc1ccnc2cc(-c3cccc(CNCCS(C)(=O)=O)c3)ccc12	840
NC1CCN(Cc2cccc(-c3ccc(-c4nc5ccccc5[nH]4)s3)c2)C1 (stereo unspecified)	730
O=[N+]([O-])c1cc(/C=N/Nc2nc3ccccc3[nH]2)ccc1O	950
CC(C)COc1ccc(Cl)cc1Cc1ccc(-c2nc3ccc(N4CCN(C)CC4)cc3[nH]2)o1	950
CC(C)C[C@H](NC(=O)c1cc2ccccc2s1)C(=O)N[C@H]1CCN(Cc2ccc(OC[C@@H]3CCCN3C)c3ccccc23)C1	1160
COCn1ncc2cc(-c3cccc(NC(=O)c4csc(NC(C)=O)n4)c3)ccc21	990
O=C(Nc1ccc(Cl)cc1)Nc1ccc(Cn2ncc(N3CCCNCC3)c(Cl)c2=O)cc1	780
COCCNCc1ccc(-c2ccc(CNC3CCN(Cc4ccccc4)CC3)cc2)cc1	670
Cc1cnc(C(=O)Nc2ccc(-c3cccc(-c4nc5ccccc5[nH]4)c3)cc2)cn1	830

SMILES	IC50 [nM]
CCN1CCC(N(Cc2ccc(-c3ccc(C(F)(F)F)s3)cc2)C(=O)Cn2c(CCc3cccc(F)c3F)nc(=O)c3ccccc32)CC1	930
CCC(C)NCC(O)(c1ccc(Cl)cc1)c1ccc(Cl)cc1 (stereo unspecified)	840
CCN(CC)CCNc1ccnc2[nH]c3ccc([N+](=O)[O-])cc3c12	200
Brc1cc2c(cc1C=NNc1nc(Nc3ccccc3)nc(Nc3ccccc3)n1)OCO2	800
CCn1c(SC)nnc1C1CCCN(CC(=O)Nc2nc3ccc(OC)cc3s2)C1 (stereo unspecified)	750
COc1ccc(NC(=O)Nc2nc(-c3ccc(Cl)c(C)c3)cs2)cc1N1CCN(C)CC1	270
COc1ccc(-c2ccc(NC(=O)c3cccc(C#N)c3)cc2)cc1CN(C)C	730
N#Cc1ccc(CN2CCC(Oc3ccc(NC(=O)c4ccccc4)cc3Cl)CC2)cc1	1260
O=C(NC1CCN(Cc2ccccc2)C1)c1ccc(Nc2ccc(Br)cc2)nc1 (stereo unspecified)	1080
COc1cc(C(=O)NC2CCN(Cc3ccccc3)CC2)ccc1-c1nc2c(Cl)cc(C(F)(F)F)cc2[nH]1	670
COc1ccc2ncc(F)c(CCN3CC[C@H](NC(=O)c4ccc5c(n4)NC(=O)CS5)[C@H](O)C3)c2n1	950
Cc1nc2sccn2c1C(=O)NCCc1ccccc1Cl	800
CN1CCN(c2ccc(Nc3nc(N)c4ccn(C5CCC5)c4n3)cc2)CC1	1220
CCC(CC)OC(=O)C(C)c1cccc(C(=O)c2ccccc2)c1 (stereo unspecified)	830
Nc1nc(N)c2c(ccc3ccccc32)n1	750
CC(C)CNCc1ccc(-c2ccc(CNC3CCN(Cc4ccccc4)CC3)cc2)cc1	560
O=C(NCCCN1CCOCC1)c1cccc(Nc2nccc(Nc3ccc(Oc4ccccc4)cc3)n2)c1	770
Cc1ccc(NC(=O)c2ccc(CN3CCCN(CC4CCCCC4)CC3)cc2)cc1C	1020
O=C(NCCCCN1CCC(C(c2ccccc2)c2ccccc2)CC1)c1ccc(NC(=O)c2ccc(Cl)cc2)cc1	770
O=C(O)c1ccc(-c2c[nH]c3ncc(-c4ccc(Cl)cc4)cc23)cc1	730
CCC(=O)NC(c1ccco1)c1cc(Cl)c2cccnc2c1O (stereo unspecified)	870
Oc1ccc(CCNc2nc(NCc3ccccc3-c3ccc(C(F)(F)F)cc3)nc(N3CCNCC3)n2)cc1	870
Cc1cc(NC(=O)N=C(N)N)ccc1Cl	700
OCC1CCN(Cc2cccc(-c3ccc(-c4nc5ccc(C(F)(F)F)cc5[nH]4)s3)c2)CC1	590
O=C(Nc1cccc(CN2CCCN(Cc3ccsc3)CC2)c1)c1ccc(-c2ccccc2)cc1	1340
